# Data published in paper PMC12517324, “Hyperagonism of a Vitamin D Receptor Agonist/Histone Deacetylase Inhibitor Hybrid Molecule” (Journal of Medicinal Chemistry, 2025).
# Test system: B16–F10 cells
# Assay: RNaseq gene expression profiling
# Format: cell-based, mouse
# Conditions: RNAseq
# Method: AC-340 superinduced CYP24A1 expression in all cell lines tested, and ZG-126 appeared to be a hyperagonist in SK-MEL-28 cells. […] AC-340 treatment produced 3 times more differentially expressed genes (DEGs) than AM-193, with ZG-126 producing an intermediate number (Figure A). […] The varying effects of each treatment on the numbers of regulated genes and the fold changes observed are reflected in plots of log-fold changes and volcano plots (Figure S3B).
# A quality control was performed before sequencing in paired-end at 50 M reads by Illumina NovaSeq 6000 S4 PE100. After sequencing, the FASTQ files were sent to us and all downstream analysis were performed on Galaxy (Galaxy (usegalaxy.org)). First, trimmomatic tool was used to remove the adapters from the reads. Then, using the alignment tool, HISAT2, the reads were mapped to the mouse genome. In the next step, the counted reads were annotated and finally the list of differentially expressed genes (DEGs) for each treatment was obtained using the preinstalled R package called Limma.
structure (smiles),measurement,setting,value
CCC(CC)(c1ccc(OCCCCCC(=O)NO)cc1)c1ccc(OCC(O)C(C)(C)C)c(C)n1 (centres unmarked) [AM-193],logFC H4c1,"gene H4c1, AM193-significant genes",-0.7797
same,logFC H4c2,"gene H4c2, AM193-significant genes",-0.7954
same,logFC Higd1a,"gene Higd1a, AM193-significant genes",-0.903
same,logFC Hirip3,"gene Hirip3, AM193-significant genes",-0.7302
same,logFC Hmga1,"gene Hmga1, AM193-significant genes",-1.033
same,logFC Hmga1b,"gene Hmga1b, AM193-significant genes",-1.051
same,logFC Hmgb2,"gene Hmgb2, AM193-significant genes",-0.8226
same,logFC Hmgcs1,"gene Hmgcs1, AM193-significant genes",-0.7755
same,logFC Hmgn2,"gene Hmgn2, AM193-significant genes",-0.7752
same,logFC Hpse,"gene Hpse, AM193-significant genes",-0.8433
same,logFC Hrob,"gene Hrob, AM193-significant genes",-0.8536
same,logFC Hspa5,"gene Hspa5, AM193-significant genes",-0.7657
same,logFC Idi1,"gene Idi1, AM193-significant genes",-1.099
same,logFC Ier3,"gene Ier3, AM193-significant genes",-0.7432
same,logFC Impa2,"gene Impa2, AM193-significant genes",-0.8388
same,logFC Impdh2-ps,"gene Impdh2-ps, AM193-significant genes",-0.7159
same,logFC Incenp,"gene Incenp, AM193-significant genes",-0.7108
same,logFC Ip6k3,"gene Ip6k3, AM193-significant genes",-0.7379
same,logFC Irgm1,"gene Irgm1, AM193-significant genes",-0.7387
same,logFC Jmjd6,"gene Jmjd6, AM193-significant genes",-0.8319
same,logFC Jpt2,"gene Jpt2, AM193-significant genes",-0.8326
same,logFC Kif2c,"gene Kif2c, AM193-significant genes",-0.7884
same,logFC Kif14,"gene Kif14, AM193-significant genes",-0.8043
same,logFC Kif20b,"gene Kif20b, AM193-significant genes",-0.7216
same,logFC Kif22,"gene Kif22, AM193-significant genes",-0.8428
same,logFC Kif23,"gene Kif23, AM193-significant genes",-0.7776
same,logFC Ldha,"gene Ldha, AM193-significant genes",-0.9079
same,logFC Ldlr,"gene Ldlr, AM193-significant genes",-0.7666
same,logFC Lig1,"gene Lig1, AM193-significant genes",-0.7368
same,logFC Lmnb1,"gene Lmnb1, AM193-significant genes",-0.9349
same,logFC Loxl2,"gene Loxl2, AM193-significant genes",-1.106
same,logFC Lpcat1,"gene Lpcat1, AM193-significant genes",-1.098
same,logFC Lpgat1,"gene Lpgat1, AM193-significant genes",-0.8431
same,logFC Lrp8,"gene Lrp8, AM193-significant genes",-0.9511
same,logFC Lyar,"gene Lyar, AM193-significant genes",-0.724
same,logFC Man2a1,"gene Man2a1, AM193-significant genes",-0.7409
same,logFC Mcm10,"gene Mcm10, AM193-significant genes",-0.7922
same,logFC Mest,"gene Mest, AM193-significant genes",-1.125
same,logFC Met,"gene Met, AM193-significant genes",-1.057
same,logFC Mitf,"gene Mitf, AM193-significant genes",-0.8034
same,logFC Mki67,"gene Mki67, AM193-significant genes",-0.7294
same,logFC Mxd3,"gene Mxd3, AM193-significant genes",-0.9949
same,logFC Mybl2,"gene Mybl2, AM193-significant genes",-1.058
same,logFC Naa10,"gene Naa10, AM193-significant genes",-0.8589
same,logFC Nampt,"gene Nampt, AM193-significant genes",-0.7338
same,logFC Nasp,"gene Nasp, AM193-significant genes",-0.9086
same,logFC Nbn,"gene Nbn, AM193-significant genes",-0.7109
same,logFC Ndc80,"gene Ndc80, AM193-significant genes",-0.7825
same,logFC Net1,"gene Net1, AM193-significant genes",-0.7159
same,logFC Nhp2,"gene Nhp2, AM193-significant genes",-0.7487
same,logFC Nhsl1,"gene Nhsl1, AM193-significant genes",-0.7298
same,logFC Nmi,"gene Nmi, AM193-significant genes",-0.8028
same,logFC Noc2l,"gene Noc2l, AM193-significant genes",-0.884
same,logFC Nr4a1,"gene Nr4a1, AM193-significant genes",-0.9791
same,logFC Nsun2,"gene Nsun2, AM193-significant genes",-0.766
same,logFC P4ha2,"gene P4ha2, AM193-significant genes",-0.8086
same,logFC Pbk,"gene Pbk, AM193-significant genes",-0.8895
same,logFC Pclaf,"gene Pclaf, AM193-significant genes",-0.7086
same,logFC Pfkl,"gene Pfkl, AM193-significant genes",-1.068
same,logFC Pfkp,"gene Pfkp, AM193-significant genes",-0.83
same,logFC Pgf,"gene Pgf, AM193-significant genes",-1.056
same,logFC Pgm1,"gene Pgm1, AM193-significant genes",-0.9062
same,logFC Pgp,"gene Pgp, AM193-significant genes",-0.8532
same,logFC Pif1,"gene Pif1, AM193-significant genes",-0.8212
same,logFC Pimreg,"gene Pimreg, AM193-significant genes",-0.8591
same,logFC Plekha2,"gene Plekha2, AM193-significant genes",-0.8787
same,logFC Plk1,"gene Plk1, AM193-significant genes",-0.7788
same,logFC Plpp5,"gene Plpp5, AM193-significant genes",-0.8001
same,logFC Pmf1,"gene Pmf1, AM193-significant genes",-0.796
same,logFC Pnn,"gene Pnn, AM193-significant genes",-0.8904
same,logFC Pold1,"gene Pold1, AM193-significant genes",-0.8466
same,logFC Pold2,"gene Pold2, AM193-significant genes",-0.855
same,logFC Prkcz,"gene Prkcz, AM193-significant genes",-1.145
same,logFC Psmb10,"gene Psmb10, AM193-significant genes",-0.8103
same,logFC Ptpn6,"gene Ptpn6, AM193-significant genes",-0.8579
same,logFC Rcc1,"gene Rcc1, AM193-significant genes",-0.8765
same,logFC Rcc1l,"gene Rcc1l, AM193-significant genes",-0.7067
